Measurements published in US4837228A, “Antiinflammatory and antimicrobial compounds and compositions” (The University of Mississippi, priority 1982, dated 1989).
In brackets after ≈: the same amount, converted by molar mass. Several values for one entry are separate records, joined by “and”; a condition that tells them apart may be missing. Equal values may be shown once. Read-outs that look alike come from different tables or passages of the source.

Tests used:
[1] = system: Trichophyton mentagrophytes; assay: agar well diffusion assay, T. mentagrophytes; format: cell-based; settings: one entry across 48 hr and 72 hr
Procedure: (§1) Both qualitative and quantitative screens were performed. Qualitative screening was accomplished using the agar well diffusion assay technque while quantitative screening was accomplished by the two-fold (broth) serial dilution method to determine the minimum inhibitory concentration (MIC). Innoculation was accomplished with one loop-full of a 1:10 dilution of the 24-hour-old broth culture, (fungal cultures and M.smegmatis more often required 48 to 72 hours of incubation) of the test organisms in sterile water. Streptomycin sulfate was used as a positive control for antibacterial activity while amphitericin B was used as an antifungal positive control. Organisms utilized in the screens included gram-positive, gram-negative, and acid-fast bacteria as well as different types of fungi. […] An intermediate type activity is seen where R is hydrogen. However, where R is lengthened up to C15 a decrease in activity was noted. Total saturation of the two double bonds in the compounds having a methyl side chain lead, in most cases, to an increase in both antifungal and antibacterial activity.

Staphylococcus aureus [2] = assay: agar well diffusion assay, S. aureus; format: cell-based; settings: from edge of agar well
Procedure: as §1

Mycobacterium smegmatis [3] = assay: agar well diffusion assay, M. smegmatis; format: cell-based; settings: from edge of agar well
Procedure: as §1

Escherichia coli = assay: agar well diffusion assay, E. coli; format: cell-based; settings: from edge of agar well
Procedure: as §1

Pseudomonas aeruginosa = assay: agar well diffusion assay, Ps. aeruginosa; format: cell-based; settings: from edge of agar well
Procedure: as §1

Candida albicans [4] = assay: agar well diffusion assay, C. albicans; format: cell-based; settings: from edge of agar well
Procedure: as §1

Bacillus subtilis [5] = assay: agar well diffusion assay, B. subtilis; format: cell-based; settings: from edge of agar well
Procedure: as §1

Saccharomyces cerevisiae [6] = assay: agar well diffusion assay, S. cerevisiae; format: cell-based; settings: from edge of agar well
Procedure: as §1

Aspergillus niger = assay: agar well diffusion assay, A. niger; format: cell-based; settings: from edge of agar well
Procedure: as §1

[7] = system: erythrocyte (heat-induced hemolysis); assay: erythrocyte membrane stabilization assay (heat-induced erythrocyte hemolysis); format: cell-based; settings: Erythrocyte; for inhibition at 250 µM: 2.5 × 10^-4 M
Procedure: The published procedure (Proc. Soc. Exp. Biol. Med. 1967; 125; 837-842 Brow et al) for in vitro assay for antiinflammatory agents based on stabilization of erythrocytes was used. All compounds were prepared for administration by dissolving in physiologic saline or suspending in 2% ethanol in saline and the pH adjusted to 7.4 The concentrations tested in one series are given in Table 8. Aspirin (ASA) and phenylbutazone were used as positive controls for comparison of activity. Tests using this procedure were successfully and repeatedly using either 40% or 20% RBC suspensions.

[8] = system: Trichophyton mentagrophytes; assay: MIC, two-fold (broth) serial dilution, T. mentagrophytes; format: cell-based
Procedure: as §1

Candida albicans [9] = assay: MIC, two-fold (broth) serial dilution, C. albicans; format: cell-based
Procedure: as §1

Saccharomyces cerevisiae [10] = assay: MIC, two-fold (broth) serial dilution, S. cerevisiae; format: cell-based
Procedure: as §1

Mycobacterium smegmatis [11] = assay: MIC, two-fold (broth) serial dilution, M. smegmatis; format: cell-based
Procedure: as §1

Bacillus subtilis [12] = assay: MIC, two-fold (broth) serial dilution, B. subtilis; format: cell-based
Procedure: as §1

[13] = system: carrageenan-induced rat paw edema; assay: carrageenan-induced rat paw edema test, intraperitoneal dosing; format: in vivo; settings: Table 5, * P = 0.01
Procedure: Two methods were used to assess the antiinflammatory activity of the compounds of the invention: the carrageenan-induced rat paw edema test and, the erythrocyte membrane stabilization assay.
In the Rat Paw Edema Test, the rats utilized were divided into test groups of six to eight animals, weighed and marked so that individual rats could be identified; one hour before testing all rats were given a 700 mg/kg intraperitoneal injection of ethyl urethane in distilled water to render them tractable during testing. A circle was drawn, with a felt-tipped marker, around the hind leg of each rat just above the ankle, and each rat was dosed with a test or control compound by intraperitoneal injection. Negative control groups received the vehicle; while positive control groups received a dose of phenylbutazone (PBZ) as shown in Table II. Test compounds were given at doses of 60, 120, 240 and 480 mg/kg. The positive controls were given at 120 mg/kg and 60 mg/kg. Phenylbutazone was prepared for injection by suspending it in normal saline using Tween 60. The rats were then held in group cages for 30 minutes. The volume of the left hind paw was measured using a mercury displacement pleysmograph. The paw is dipped into the mercury until the mercury touches the line above the ankle. Mercury is then withdrawn until the mercury returns to its original level. The amount of mercury removed is measured in milliliters (ml). The mercury can be measured accurately to 0.01 ml. This left hind paw was then injected with 0.1 ml of a 5% w/v solution of viscous carageenan in normal saline. The injection was given between the metatarsal bones using a 27 gauge needle, and the rats then held in group cages for 3 hours. The volume of the left hind paws was measured again in the pleysmograph. The results were computed in the following manner:
a. A mean is taken for both the pre-injection and post-injection paw volume of each test group.
b. The mean difference in volume (MDV) for each test group is computed by subtracting the pre-injection means from the post-injection mean.
c. The percent of control is computed for each test [formula] The percent of control is used to compare the efficacy of the various drug treatments.
d. The percent increase in paw volume is calculated for each group as: [formula] The percent increase is used to compare the amount of edma observed in one experiment to the amount of edma observed in other experiments.
The data from the rat paw test were further analyzed using a one-way analysis of varience (ANOVA) and Duncan's New Multiple Range Test. The pre-injection score of each animal was subtracted from his post-injection score and an analysis of the different scores were conducted.
The procedure described above was followed. […] The vehicle control used was Tween 60, Arlacel and distilled water prepared without CBC(II).

Staphylococcus aureus [14] = assay: MIC, two-fold (broth) serial dilution, S. aureus; format: cell-based
Procedure: as §1

[15] = 24 hr, listed as Streptomycin-SO4
[16] = 48 hr, listed as Streptomycin-SO4

CCCCCc1cc(O)c2c(c1)OC(C)(CCCC(C)C)CC2 (centres unmarked) [CBC (X), 2-methyl-2(4'-methyl-pentyl)-5-hydroxy-7-pentyl chroman]
agar well diffusion result in words [1]: No growth
width of inhibition zone (Staphylococcus aureus [2]; 24 hr): 13. mm
width of inhibition zone (Staphylococcus aureus [2]; 48 hr): 13. mm
width of inhibition zone (Mycobacterium smegmatis [3]; 24 hr): 7. mm
width of inhibition zone (Mycobacterium smegmatis [3]; 48 hr): 7. mm
width of inhibition zone (Escherichia coli; 24 hr): 5. mm
width of inhibition zone (Escherichia coli; 48 hr): 5. mm
width of inhibition zone (Pseudomonas aeruginosa; 24 hr): 1. mm
width of inhibition zone (Pseudomonas aeruginosa; 48 hr): 1. mm
width of inhibition zone (Candida albicans [4]; 48 hr): 2. mm
width of inhibition zone (Candida albicans [4]; 72 hr): 3. mm
width of inhibition zone (Bacillus subtilis [5]; 24 hr): 4.0 mm
width of inhibition zone (Bacillus subtilis [5]; 48 hr): 4.0 mm
width of inhibition zone (Saccharomyces cerevisiae [6]; 48 hr): 7. mm
width of inhibition zone (Saccharomyces cerevisiae [6]; 72 hr): 7. mm
width of inhibition zone (Aspergillus niger; 48 hr): 1. mm
width of inhibition zone (Aspergillus niger; 72 hr): 1. mm

Cc1ccc(C(=O)c2ccc(CC(=O)O)n2C)cc1 [Tolmetin, reference compound]
inhibition at 200 µM ([7]; Table 9 Test 1 (20% RBC), 2.0 × 10^-4 M, read-out: percent inhibition of heat-induced erythrocyte hemolysis): 27%

2-methyl-2(4'-methyl-pent-3'-enyl)-5-hydroxy-7-pent-dec-8'-enyl chromene [CBC (VIII)]
MIC ([8]; 48 hr): 25 µg/mL
MIC ([8]; 72 hr): 50 µg/mL
MIC (Candida albicans [9]; 48 hr): 50 µg/mL
MIC (Candida albicans [9]; 72 hr): 100 µg/mL
MIC (Saccharomyces cerevisiae [10]; 48 hr): 100 µg/mL
MIC (Saccharomyces cerevisiae [10]; 72 hr): 100 µg/mL
MIC (Mycobacterium smegmatis [11]; 24 hr): 12.5 µg/mL and 25 µg/mL

2-methyl-2(4'-methyl-pentyl)-5-hydroxy-7-methyl chroman [CBC (V)]
agar well diffusion result in words [1]: No growth
width of inhibition zone (Staphylococcus aureus [2]; 24 hr): 25. mm
width of inhibition zone (Staphylococcus aureus [2]; 48 hr): 25. mm
width of inhibition zone (Mycobacterium smegmatis [3]; 24 hr): 25. mm
width of inhibition zone (Mycobacterium smegmatis [3]; 48 hr): 25. mm
MIC (Bacillus subtilis [12]; 24 hr): 3.12 µg/mL and 1.56 µg/mL
MIC (Bacillus subtilis [12]; 48 hr): 3.12 µg/mL and 1.56 µg/mL
width of inhibition zone (Escherichia coli; 24 hr): 5. mm
width of inhibition zone (Escherichia coli; 48 hr): 5. mm
inhibition of carrageenan-induced rat paw edema ([13]; 60 mg/kg i.p.): 53%
inhibition of carrageenan-induced rat paw edema ([13]; 120 mg/kg i.p.): 63%
inhibition of carrageenan-induced rat paw edema ([13]; 240 mg/kg i.p.): 92%
MIC (Saccharomyces cerevisiae [10]; 48 hr): 6.25 µg/mL and 12.5 µg/mL
MIC (Saccharomyces cerevisiae [10]; 72 hr): 12.5 µg/mL
width of inhibition zone (Pseudomonas aeruginosa; 24 hr): 4. mm
width of inhibition zone (Pseudomonas aeruginosa; 48 hr): 3. mm
MIC (Mycobacterium smegmatis [11]; 24 hr): 3.12 µg/mL
width of inhibition zone (Candida albicans [4]; 48 hr): 3.0 mm
width of inhibition zone (Candida albicans [4]; 72 hr): 3.0 mm
width of inhibition zone (Bacillus subtilis [5]; 24 hr): 16.0 mm
width of inhibition zone (Bacillus subtilis [5]; 48 hr): 9.0 mm
width of inhibition zone (Saccharomyces cerevisiae [6]; 48 hr): 22. mm
width of inhibition zone (Saccharomyces cerevisiae [6]; 72 hr): 22. mm
width of inhibition zone (Aspergillus niger; 48 hr): 3. mm
width of inhibition zone (Aspergillus niger; 72 hr): 3. mm
MIC (Staphylococcus aureus [14]; 48 hr): 3.12 µg/mL

[H]/N=C(/N)N[C@H]1[C@H](O)[C@@H](O)[C@H](O[C@@H]2O[C@@H](C)[C@](O)(C=O)[C@H]2O[C@@H]2O[C@@H](CO)[C@H](O)[C@@H](O)[C@@H]2NC)[C@@H](N/C(N)=N\[H])[C@@H]1O [Streptomycin SO4, reference compound]
width of inhibition zone (Staphylococcus aureus [2]; 24 hr): 9. mm
width of inhibition zone (Staphylococcus aureus [2]; [15]): 10. mm
width of inhibition zone (Staphylococcus aureus [2]; 48 hr): 9. mm
width of inhibition zone (Staphylococcus aureus [2]; [16]): 10. mm
width of inhibition zone (Mycobacterium smegmatis [3]; 24 hr): 20. mm
width of inhibition zone (Mycobacterium smegmatis [3]; 48 hr): 22. mm
MIC (Bacillus subtilis [12]; 24 hr): 3.12 µg/mL (≈ 5.36 µM)
MIC (Bacillus subtilis [12]; 48 hr): 25 µg/mL (≈ 43 µM)
width of inhibition zone (Escherichia coli; 24 hr): 2. mm
width of inhibition zone (Escherichia coli; [15]): 5. mm
width of inhibition zone (Escherichia coli; 48 hr): 2. mm
width of inhibition zone (Escherichia coli; [16]): 5. mm
width of inhibition zone (Pseudomonas aeruginosa; 24 hr): 3. mm
width of inhibition zone (Pseudomonas aeruginosa; [15]): 7. mm
width of inhibition zone (Pseudomonas aeruginosa; 48 hr): 3. mm
width of inhibition zone (Pseudomonas aeruginosa; [16]): 6. mm
MIC (Mycobacterium smegmatis [11]; 24 hr): 1.56 µg/mL (≈ 2.68 µM)
MIC (Mycobacterium smegmatis [11]; [15]): 1.56 µg/mL and 0.78 µg/mL
MIC (Mycobacterium smegmatis [11]; 48 hr): 1.56 µg/mL (≈ 2.68 µM)
MIC (Mycobacterium smegmatis [11]; [16]): 1.56 µg/mL and 0.78 µg/mL
width of inhibition zone (Bacillus subtilis [5]; 24 hr): 7. mm
width of inhibition zone (Bacillus subtilis [5]; [15]): 11. mm
width of inhibition zone (Bacillus subtilis [5]; 48 hr): 8. mm
width of inhibition zone (Bacillus subtilis [5]; [16]): 10. mm
MIC (Staphylococcus aureus [14]; 24 hr): 3.12 µg/mL (≈ 5.36 µM)
MIC (Staphylococcus aureus [14]; 48 hr): 12.5 µg/mL and 6.25 µg/mL
MIC (Staphylococcus aureus [14]; [16]): 12.5 µg/mL and 25.0 µg/mL and 25 µg/mL

CCCCCc1cc(O)cc2c1C=CC(C)(CCC=C(C)C)O2 (centres unmarked) [Iso CBC (IX), 2-methyl-2(4'-methyl-pent-3'-enyl)-5-pentyl-7-hydroxy chromene]
inhibition at 100 µM ([7]; read-out: inhibition of heat-induced erythrocyte hemolysis, Table 8, 1 × 10^-4 M): 75%
MIC (Bacillus subtilis [12]; Bacillus subtilis, 24 h, read-out: MIC): 0.78 µg/mL (≈ 2.48 µM)
MIC (Bacillus subtilis [12]; Bacillus subtilis, 48 h, read-out: MIC): 3.12 µg/mL (≈ 9.92 µM)
MIC (Candida albicans [9]; Candida albicans, 48 h, read-out: MIC): 50 µg/mL (≈ 159 µM)
MIC (Candida albicans [9]; Candida albicans, 72 h, read-out: MIC): 100 µg/mL (≈ 318 µM)
MIC (Mycobacterium smegmatis [11]; Mycolicibacterium smegmatis, 24 h, read-out: MIC): 25 µg/mL (≈ 79.5 µM)
MIC (Mycobacterium smegmatis [11]; Mycolicibacterium smegmatis, 48 h, read-out: MIC): 25 µg/mL (≈ 79.5 µM)

CC(=O)Oc1ccccc1C(=O)O [Aspirin, Acetylsalicylic Acid, reference compound]
inhibition at 250 µM ([7]; Table 8, read-out: inhibition of heat-induced erythrocyte hemolysis): 21%
inhibition at 250 µM ([7]; Table 9 Test 1 (20% RBC), read-out: percent inhibition of heat-induced erythrocyte hemolysis): 21%
inhibition at 500 µM ([7]; Table 9 Test 3 (20% RBC), 5.0 × 10^-4 M, read-out: percent inhibition of heat-induced erythrocyte hemolysis): 40%
inhibition at 500 µM ([7]; 5×10^-4 M, read-out: inhibition of heat-induced red cell hemolysis): 40%
